Test results reported in PubChem BioAssay (NCI).
Values joined by “and” are separate entries in the source; they are usually repeats but may differ in a detail not shown here. Equal entries are not always repeated.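 Each compound was tested at five concentrations against cells in 96-well plates for 48 hours. GI50 marks 50% less growth. TGI denotes the concentration required for complete inhibition of growth.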

Tests used:
Test in all cases: NCI tumour cell line growth inhibition, 48 h
MDA-N = tested on: MDA-N
DLD-1 colon = tested on: DLD-1 colon
HOP-18 NSCLC = tested on: HOP-18 NSCLC
KM20L2 colon = tested on: KM20L2 colon
LXFL 529 NSCLC = tested on: LXFL 529 NSCLC
XF 498 CNS = tested on: XF 498 CNS
DMS 114 small cell lung = tested on: DMS 114 small cell lung
DMS 273 small cell lung = tested on: DMS 273 small cell lung
P388 leukemia = tested on: P388 leukemia
P388/ADR leukemia = tested on: P388/ADR leukemia
SN12K1 renal = tested on: SN12K1 renal
RXF-631 renal = tested on: RXF-631 renal

Work on `OCCCN=C1CCCCC1` yielded a TGI (MDA-N) greater than 100 µM.

With `O=[N+]([O-])c1cccc(/C=N/Nc2ccc3ccccc3n2)c1O` the TGI (MDA-N) was 34.3 µM.

`C[N+](C)(C)CC1CCC(C[N+](C)(C)C)C1=NO` (stereo not given) showed a TGI (DLD-1 colon) greater than 100 µM, a TGI (HOP-18 NSCLC) greater than 100 µM and a TGI (KM20L2 colon) greater than 100 µM. For the same molecule, the TGI (LXFL 529 NSCLC) was greater than 100 µM and the TGI (XF 498 CNS) was greater than 100 µM.

With `COC(=O)Cc1cc(=O)n2c3ccccc3n(C)c2c1C#N` the TGI (DLD-1 colon) was greater than 100 µM, the TGI (DMS 114 small cell lung) was greater than 100 µM and the TGI (DMS 273 small cell lung) was greater than 100 µM. It also gave a TGI (KM20L2 colon) greater than 100 µM and a TGI (XF 498 CNS) greater than 100 µM.

`CC1(C)CC(O)CC(C)(C)N1O` was tested, and the TGI (MDA-N) was greater than 100 µM.

Molecule `COC(=O)[C@@]12OC[C@]34[C@H]([C@@H](O)[C@@H]1O)[C@@]1(C)CC(=O)C(O)=C(C)[C@@H]1C[C@H]3OC(=O)[C@H](OC(=O)/C=C(\C)C(C)C)[C@@H]24` has a GI50 (DMS 114 small cell lung) of 35.4 pM, a TGI (DMS 114 small cell lung) of 0.000286 µM and a TGI (DMS 273 small cell lung) of 0.000177 µM. The GI50 (HOP-18 NSCLC) was 0.00161 µM, the TGI (HOP-18 NSCLC) was 0.016 µM and 0.0848 µM and the GI50 (MDA-N) was 0.02 µM. The TGI (MDA-N) was 0.0345 µM and 0.0321 µM, the TGI (P388 leukemia) was 0.109 µM and the TGI (P388/ADR leukemia) was 0.692 µM. It also gave a TGI (SN12K1 renal) of 0.0541 µM and a TGI (XF 498 CNS) of 0.0212 µM.

In the case of `CC(C)c1ccc(O)c(Cc2cc(C(C)C)cc(Cc3cc(C(C)C)ccc3O)c2O)c1`, the TGI (DLD-1 colon) is reported as 4.15 µM, the TGI (DMS 114 small cell lung) is reported as 3.03 µM and the TGI (KM20L2 colon) is reported as 5.55 µM. It also gave a TGI (LXFL 529 NSCLC) of 2.81 µM and a TGI (XF 498 CNS) of 2.73 µM.

With `FC(F)(F)c1ccccc1C1SCc2nc3ccccc3n21` (stereo not given) the TGI (DLD-1 colon) was greater than 100 µM, the TGI (DMS 114 small cell lung) was greater than 100 µM and the TGI (DMS 273 small cell lung) was greater than 100 µM. It also gave a TGI (HOP-18 NSCLC) greater than 100 µM and a TGI (LXFL 529 NSCLC) greater than 100 µM.

For `CC(C)(C)N/N=C(/Cc1nc2c3c(ccc2[nH]c1=O)C(=O)c1ccccc1C3=O)C(=O)NC1=C(Cl)C(=O)c2ccccc2C1=O`, the TGI (MDA-N) was 28.3 µM.

For `CC(=O)CCC1(c2ccccc2)OC(=O)C(C#N)=C1c1ccccc1` (stereo not given), the TGI (DLD-1 colon) was greater than 100 µM, the TGI (DMS 114 small cell lung) was greater than 100 µM and the TGI (DMS 273 small cell lung) was greater than 100 µM. The TGI (KM20L2 colon) was greater than 100 µM, the TGI (LXFL 529 NSCLC) was greater than 100 µM and the TGI (RXF-631 renal) was greater than 100 µM. It also gave a TGI (XF 498 CNS) greater than 100 µM.

For `CC(C)(O)C1COC2=C1C(=O)c1ccccc1C2=O` (stereo not given), the TGI (MDA-N) was 33.3 µM.

`C=C1C(=O)OC2CC(C)C(/C=C/C(C)=O)=CCC12` (stereo not given) showed a TGI (MDA-N) greater than 100 µM.

For `N=C(N)c1ccc2oc3ccc(C(=N)N)cc3c(=O)c2c1`, the TGI (MDA-N) was greater than 100 µM.

In the case of `Cc1cc(N(CCC#N)CCC#N)ccc1/C=C(\NC(=O)/C=C/c1ccccc1)C(=O)Nc1ccccc1Cl`, the TGI (DLD-1 colon) is reported as greater than 100 µM, the TGI (DMS 114 small cell lung) is reported as greater than 100 µM and the TGI (DMS 273 small cell lung) is reported as greater than 100 µM. It also gave a TGI (KM20L2 colon) greater than 100 µM and a TGI (LXFL 529 NSCLC) greater than 100 µM.

With `NNc1c(C(N)=O)c2c(N)ncnc2n1C1OC(CO)C(O)C1O` (stereo not given) the TGI (MDA-N) was 0.144 µM.

`COc1cccc(/C=C2\N=C(c3ccccc3)OC2=O)c1` was tested, and the TGI (MDA-N) was greater than 100 µM.

`CCCCCCCCCCCCCCCCCc1nc(Cl)nc(Cl)c1Cl` gave a TGI (MDA-N) greater than 100 µM.

`O=[N+]([O-])c1ccccc1N=Nc1c(O)[nH]c2c(Cl)cccc12` showed a TGI (MDA-N) greater than 100 µM.

`O=C1/C(=C/c2ccc(Cl)cc2)CCC1CNc1ccc(Cl)cc1` (stereo not given) was tested, and the TGI (DLD-1 colon) was 10.7 µM, the TGI (DMS 114 small cell lung) was greater than 48.3 µM and the TGI (DMS 273 small cell lung) was greater than 39.9 µM. The TGI (HOP-18 NSCLC) was greater than 74.5 µM, the TGI (KM20L2 colon) was 12.6 µM and the TGI (LXFL 529 NSCLC) was 10.5 µM. The TGI (MDA-N) was 40.4 µM and the TGI (XF 498 CNS) was 29.5 µM.

`Cc1c(Cl)ccc2c1NC(=O)C2(O)CC(=O)c1ccc(Cl)cc1` (stereo not given) showed a TGI (DLD-1 colon) greater than 100 µM, a TGI (DMS 114 small cell lung) of 37.1 µM and a TGI (DMS 273 small cell lung) greater than 100 µM. It also gave a TGI (HOP-18 NSCLC) greater than 100 µM, a TGI (KM20L2 colon) greater than 100 µM and a TGI (LXFL 529 NSCLC) greater than 53.3 µM. For the same molecule, the TGI (RXF-631 renal) was greater than 100 µM.

`Cc1cc(Cl)ccc1N=C1NC(=O)C(CC(=O)Nc2cccc(Cl)c2)S1` (stereo not given) showed a TGI (DLD-1 colon) greater than 100 µM, a TGI (DMS 114 small cell lung) greater than 100 µM and a TGI (DMS 273 small cell lung) greater than 100 µM. The TGI (HOP-18 NSCLC) was greater than 100 µM, the TGI (KM20L2 colon) was greater than 100 µM and the TGI (LXFL 529 NSCLC) was greater than 100 µM. It also gave a TGI (XF 498 CNS) greater than 100 µM.

`COC(=O)C1=NC(=S)NC(c2ccccc2)C1c1nc2ccccc2o1` (stereo not given) gave a TGI (DLD-1 colon) greater than 50 µM, a TGI (DMS 114 small cell lung) greater than 50 µM and a TGI (HOP-18 NSCLC) greater than 50 µM. The TGI (KM20L2 colon) was greater than 50 µM, the TGI (LXFL 529 NSCLC) was greater than 50 µM and the TGI (XF 498 CNS) was greater than 50 µM.

In the case of `O=c1cc(-c2ccccc2)oc2ccc(Cl)cc12`, the TGI (DLD-1 colon) is reported as greater than 100 µM, the TGI (DMS 114 small cell lung) is reported as greater than 100 µM and the TGI (DMS 273 small cell lung) is reported as greater than 100 µM. The TGI (HOP-18 NSCLC) was greater than 100 µM, the TGI (KM20L2 colon) was greater than 100 µM and the TGI (LXFL 529 NSCLC) was greater than 100 µM. For the same molecule, the TGI (MDA-N) was greater than 61.1 µM and the TGI (XF 498 CNS) was greater than 90.5 µM.
